Tests used:
blood brain barrier = assay: Fluorescently labeled dextran extravasation into mouse brain (fluorimetry); format: in vivo, mice
Description: The adenosine receptor agonists NECA, CCPA, CGS 21860, and SCH 58261 (Tocris, Ellisville, Mo.) were each dissolved in DMSO then diluted in PBS to the desired concentration; in most cases final DMSO concentrations were <0.5% (vol/vol). Lexiscan (Regadenoson; TRC, Inc., Toronto) was dissolved in PBS. For vehicle controls, DMSO was diluted in PBS to the same concentration. Dehydrated dextrans labeled with either FITC or Texas Red (Invitrogen, Carlsbad, Calif.) were re-suspended in PBS to 10 mg/ml. All experiments involving dextran injection used 1.0 mg dextran in PBS. In experiments where drug and dextran were injected concomitantly, 1.0 mg of dextran was mixed with the drug to the desired concentration in a final volume of 200 μl. In dose-response experiments, drugs and dextrans were injected concomitantly. All injections, except injections of SCH 58261, were retro-orbital i.v. with a 27-gauge needle. In the SCH 58261 experiment, SCH 58261 injections, 1 mg/kg, were intraperitoneal and mice were pre-dosed with this concentration daily for 4 days prior to the day of the experiment. An additional injection was administered at the time of the experiment. Vehicle/drug and dextrans were injected on day 5 and tissues were collected 3 h after vehicle/drug administration. In Lexiscan experiments, Lexiscan was administered i.v. with 3 injections, 5 min apart and tissues were collected at 15 min unless otherwise indicated.
In dose-response experiments and experiments with the A1 AR and A2A AR knock-out mice, drugs and dextrans were injected concomitantly. After 3 h, the mice were anesthetized with ketamine/xylazine and subjected to a nose cone containing isoflurane. They were perfused with 25-50 ml ice-cold PBS through the left ventricle of the heart then decapitated. Their brains were removed, weighed and frozen for later analysis.
Ice-cold 50 mMTris-Cl (pH 7.6) was added to frozen brains (100 μl per 100 mg brain) and were to thawed on ice. They were homogenized with a dounce homogenizer and centrifuged at […] in a microfuge for 30 min at room temperature (rt). The supernatants were transferred to new tubes and an equal volume absolute methanol was added. The samples were centrifuged again at […] for 30 min at rt. Supernatant (200 μl) was transferred to a Corning costar 96 well black polystyrene assay plate (clear bottom). Additionally, a series of standards containing 0.001-10 pg/ml dextran in 50% Tris-Cl/50% absolute methanol (vol/vol) was added to each plate. Absolute concentrations of dextrans were derived from these standard curves. Fluorimetric analysis was performed on a BioTek (Winooski, Vt.) Synergy 4. FITC-dextran was detected at 488/519 (excitation/emission) and Texas Red-dextran was detected at 592/618.

[1] = tested on: CD4+ lymphocytes in the brain and spinal cord; assay: CD4+ lymphocyte infiltration of brain and spinal cord after EAE induction (immunohistochemistry); format: in vivo; settings: wild type mice, day 15 post-EAE induction, vs DMSO
Description: Anesthetized mice were perfused with PBS, and brains, spleens, and spinal cords were isolated and snap frozen in Tissue Tek-OCT medium. Five μm sections (brains in a sagittal orientation) were affixed to Supefrost/Plus slides (Fisher), fixed in acetone, and stored at −80° C. For immunostaining, slides were thawed and treated with 0.03% H2O2 in PBS to block endogenous peroxidase, blocked with Casein (Vector) in normal goat serum (Zymed), and then incubated with anti-CD45 (YW62.3), anti-CD4 (RM4-5), or anti-ICAM-1 (3E2). Slides were incubated with biotinylated goat anti-rat Ig (Jackson ImmunoResearch) and streptavidin-HRP (Zymed) and developed with an AEC (Red) substrate kit (Zymed) and a hematoxylin counterstain. […]
As CD73 catalyzes the breakdown of AMP to adenosine and ARs are expressed in the CNS (Tsutsui et al., “A1 Adenosine Receptor Upregulation and Activation Attenuates Neuroinflammation and Demyelination in a Model of Multiple Sclerosis,” J. Neurosci. 24:1521-1529 (2004)); Rosi et al., The Influence of Brain Inflammation Upon Neuronal Adenosine A2B Receptors,” J. Neurochem. 86:220-227 (2003), which are hereby incorporated by reference in their entirety), it was next determined if AR signaling is important during EAE progression. […] Since CD73 is highly expressed on the choroid plexus (FIG. 6C), it was next determined if ARs are also expressed on the choroid plexus. […]

Compound: Nc1nc2c(cnn2CCc2ccccc2)c2nc(-c3ccco3)nn12 [SCH58261, 2-(2-Furanyl)-7-(2-phenylethyl)-7H-pyrazolo[4,3-e][1,2,4]triazolo[1,5-c]pyrimidin-5-amine]
- BBB permeability after NECA administration with A2A blockade (blood brain barrier; A1 AR−/− mice pre-treated with the antagonist before NECA): no significant increase in BBB permeability was observed
- entry of 10,000 Da FITC-dextran into brain (blood brain barrier; WT mice, 1 mg/kg intraperitoneal daily for 4 days plus day of experiment): significantly decreased entry of 10,000 Da FITC-dextran
- frequency of CD4+ lymphocytes in the brain and spinal cord [1]: significantly lower frequency of CD4^+ lymphocytes in the brain and spinal cord

Compound: CCNC(=O)[C@H]1O[C@@H](n2cnc3c(N)ncnc32)[C@H](O)[C@@H]1O [NECA, 5′-N-ethylcarboxamido adenosine]
- levels of i.v.-administered dextrans in brain compared to wild type mice (blood brain barrier; A1−/− and A2A−/− mice, i.v., 3 h): significantly lower levels
- FITC-dextran extravasation into brain (pilot experiment, data not shown) (blood brain barrier; CD73−/− mice, 10,000 Da FITC-dextran i.v.): dramatic increase in FITC-dextran extravasation
- time of maximum entry of labeled dextran into the CNS post-treatment (blood brain barrier; WT mice, 0.08 mg/kg i.v., dextran co-administered at T0): 4 to 6 h
- time by which barrier permeability returns to baseline (blood brain barrier; WT mice, 0.08 mg/kg i.v., dextran given at indicated times after treatment): 8 to 18 h
- effect of higher concentrations on dextran entry (blood brain barrier; WT mice, doses above 0.08 mg/kg): no additional effect or show diminished efficacy
- dose giving maximum entry of dextrans into the CNS (blood brain barrier; WT mice, i.v., 3 h): 0.08 mg/kg
- CNS entry of 10,000 Da and 70,000 Da dextrans (blood brain barrier; WT mice, i.v., 3 h, varying dose, vs vehicle): dose-dependent increases in CNS entry

From patent publication US20130224110A1, “USE OF ADENOSINE RECEPTOR SIGNALING TO MODULATE PERMEABILITY OF BLOOD-BRAIN BARRIER” (CORNELL UNIVERSITY, priority 2010, published 2013)
